We go through 18 compounds from publication PMC12637020, “Synthesis and biological evaluation of novel hydrazone derivatives for the treatment of Alzheimer's disease” (RSC Advances, 2025).

Each structure is given as a SMILES string.

One test addresses BChE enzyme (Homo sapiens, UniProt P06276). The test can be described thus: biochemical. As to conditions: for inhibition at 1000 µM: read-out: BChE% inhibition 10^−3 M; for inhibition at 100 µM: read-out: BChE% inhibition 10^−4 M. The text has this: (§1) The assay was completed in two steps.
(§2) The potential inhibitory effects of the obtained molecules on the AChE and BChE enzymes was examined using a variation of the Ellman method.[31,33,41–43] Distilled water from the Millipore/Milli-Q purification apparatus was utilized at every stage of the biological activity investigations during the evaluation process. In less than a week, all the solutions required for the biological investigation were meticulously prepared from scratch. A “BioTek-Precision Power (United States)” robotic pipetting system was utilized to distribute the prepared solutions and apply the test compounds and enzyme–substrate solutions to 96-well plates. The “BioTek-Synergy H1 Microplate Reader (United States)” was employed to establish and follow the enzyme protocol for spectrophotometric measurements. Solutions of the compounds were prepared at two different concentrations, 10^−3 M and 10^−4 M, using dimethylsulfoxide (DMSO) as 2% solution, and these were used in biological activity studies.

Another test addresses AChE enzyme (Homo sapiens, UniProt P22303). The test can be described thus: biochemical. In kind it is biochemical. As to conditions: for inhibition at 1000 µM: read-out: AChE% inhibition 10^−3 M; for inhibition at 100 µM: read-out: AChE% inhibition 10^−4 M; for IC50: tested at 10 to 0.001 µM.
Description: as §1, §2

Sequence of BChE enzyme (P06276 29-602, species assumed): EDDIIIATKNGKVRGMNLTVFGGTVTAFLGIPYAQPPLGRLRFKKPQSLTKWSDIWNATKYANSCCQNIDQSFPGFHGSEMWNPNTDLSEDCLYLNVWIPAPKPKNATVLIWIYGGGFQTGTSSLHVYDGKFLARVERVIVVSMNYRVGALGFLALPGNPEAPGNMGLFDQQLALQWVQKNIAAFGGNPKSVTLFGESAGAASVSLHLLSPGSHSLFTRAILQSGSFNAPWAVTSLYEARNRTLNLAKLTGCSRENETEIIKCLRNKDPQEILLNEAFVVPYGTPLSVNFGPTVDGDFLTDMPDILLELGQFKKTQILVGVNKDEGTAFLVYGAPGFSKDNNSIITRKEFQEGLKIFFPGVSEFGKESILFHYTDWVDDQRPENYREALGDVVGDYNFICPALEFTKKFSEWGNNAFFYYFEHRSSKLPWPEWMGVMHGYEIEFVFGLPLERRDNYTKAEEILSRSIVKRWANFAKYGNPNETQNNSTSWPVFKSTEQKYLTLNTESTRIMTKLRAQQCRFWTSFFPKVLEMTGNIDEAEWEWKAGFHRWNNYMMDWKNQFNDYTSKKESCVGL
Sequence of AChE enzyme (P22303 32-614): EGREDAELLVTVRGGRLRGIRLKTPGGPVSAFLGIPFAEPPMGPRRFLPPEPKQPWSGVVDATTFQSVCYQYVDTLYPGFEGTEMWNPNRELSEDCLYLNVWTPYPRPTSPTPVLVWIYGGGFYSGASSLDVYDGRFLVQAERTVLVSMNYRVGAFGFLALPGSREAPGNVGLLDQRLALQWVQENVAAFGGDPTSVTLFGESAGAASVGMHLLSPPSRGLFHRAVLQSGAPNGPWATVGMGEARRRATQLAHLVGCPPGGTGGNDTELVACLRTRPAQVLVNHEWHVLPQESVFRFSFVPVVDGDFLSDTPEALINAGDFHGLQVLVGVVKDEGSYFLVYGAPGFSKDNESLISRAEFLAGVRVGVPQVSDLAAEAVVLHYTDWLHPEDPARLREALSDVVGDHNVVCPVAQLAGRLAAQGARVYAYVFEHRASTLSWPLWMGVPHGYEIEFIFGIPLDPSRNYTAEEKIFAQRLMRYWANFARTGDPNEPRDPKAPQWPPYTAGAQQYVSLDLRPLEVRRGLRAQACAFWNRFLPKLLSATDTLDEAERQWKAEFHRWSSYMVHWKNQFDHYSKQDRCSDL

The IC50 is the concentration needed to halve the response being measured. As a reminder, the inhibition is the drop in the measured response relative to a control, in per cent. Take `CC(=NN=c1scc(-c2ccc(F)cc2)n1C)c1ccc(N2CCCCC2)cc1` [D1b, 4-(4-Fluorophenyl)-3-methyl-2-((1-(4-(piperidin-1 yl)phenyl)ethylidene)hydrazineylidene)-2,3-dihydrothiazole]: on BChE enzyme, the IC50 was greater than 1 mM, the inhibition at 1000 µM was determined as 30.2 ± 0.936% and the inhibition at 100 µM stood at 19.6 ± 0.864%. Moreover, on AChE enzyme, the inhibition at 1000 µM was 37.2 ± 1.54%, the inhibition at 100 µM came to 31.1 ± 1.36% and the IC50 is greater than 1 mM.
Regarding `CC(=NN=c1scc(-c2ccc(C)cc2)n1C)c1ccc(N2CCCCC2)cc1` [D1a, 3-Methyl-2-((1-(4-(piperidin-1-yl)phenyl)ethylidene)hydrazineylidene)-4-(p-tolyl)-2,3-dihydrothiazole], on BChE enzyme, the IC50 is greater than 1 mM, the inhibition at 1000 µM stood at 32.5 ± 1.06% and the inhibition at 100 µM was found to be 20.4 ± 0.984%. Further, on AChE enzyme, the inhibition at 1000 µM stood at 40.5 ± 1.92%, the inhibition at 100 µM was determined as 36.5 ± 1.72% and the IC50 was greater than 1 mM.
For the compound `CCn1c(-c2ccc(OC)cc2)csc1=NN=C(C)c1ccc(N2CCCCC2)cc1` [D3e, 3-Ethyl-4-(4-methoxyphenyl)-2-((1-(4-(piperidin-1-yl)phenyl)ethylidene)hydrazineylidene)-2,3-dihydrothiazole], on BChE enzyme, the IC50 was greater than 1 mM, the inhibition at 1000 µM came out at 36.3 ± 1.42% and the inhibition at 100 µM amounted to 30.3 ± 0.956%. Besides, at AChE enzyme, the inhibition at 1000 µM was determined as 34.1 ± 1.57%, the inhibition at 100 µM came out at 21.6 ± 0.926% and the IC50 is greater than 1 mM.
`C=CCn1c(-c2ccc([N+](=O)[O-])cc2)csc1=NN=C(C)c1ccc(N2CCCCC2)cc1` [D2c, 3-Allyl-4-(4-nitrophenyl)-2-((1-(4-(piperidin-1-yl)phenyl)ethylidene)hydrazineylidene)-2,3-dihydrothiazole]: on BChE enzyme, the IC50 is greater than 1 mM, the inhibition at 1000 µM stood at 35 ± 1.14% and the inhibition at 100 µM turned out to be 30.7 ± 1.15%. On AChE enzyme, the inhibition at 1000 µM amounted to 67 ± 1.85%, the inhibition at 100 µM amounted to 31.4 ± 0.932% and the IC50 is greater than 0.1 mM.
As to `CCn1c(-c2ccc(C)cc2)csc1=NN=C(C)c1ccc(N2CCCCC2)cc1` [D3a, 3-Ethyl-2-((1-(4-(piperidin-1-yl)phenyl)ethylidene)hydrazineylidene)-4-(p-tolyl)-2,3-dihydrothiazole], at BChE enzyme, the IC50 is greater than 1 mM, the inhibition at 1000 µM turned out to be 45.4 ± 2.09% and the inhibition at 100 µM is 25.3 ± 1%. For the same compound, on AChE enzyme, the inhibition at 1000 µM is 56.2 ± 1.75%, the inhibition at 100 µM is 37.5 ± 0.921% and the IC50 was greater than 0.1 mM.
For the compound `CCn1c(-c2ccc(C)cc2C)csc1=NN=C(C)c1ccc(N2CCCCC2)cc1` [D3i, 4-(2,4-Dimethylphenyl)-3-ethyl-2-((1-(4-(piperidin-1-yl)phenyl)ethylidene)hydrazineylidene)-2,3-dihydrothiazole], on BChE enzyme, the IC50 was greater than 1 mM, the inhibition at 1000 µM was 31.5 ± 1.04% and the inhibition at 100 µM came to 24.1 ± 0.858%. Moreover, on AChE enzyme, the inhibition at 1000 µM is 40.9 ± 1.59%, the inhibition at 100 µM amounted to 22.1 ± 0.962% and the IC50 is greater than 1 mM.
Take `CCn1c(-c2ccc([N+](=O)[O-])cc2)csc1=NN=C(C)c1ccc(N2CCCCC2)cc1` [D3c, 3-Ethyl-4-(4-nitrophenyl)-2-((1-(4-(piperidin-1 yl)phenyl)ethylidene)hydrazineylidene)-2,3-dihydrothiazole]: at BChE enzyme, the IC50 was greater than 1 mM, the inhibition at 1000 µM is 33.9 ± 1.54% and the inhibition at 100 µM was 27.3 ± 1.16%. On AChE enzyme, the inhibition at 1000 µM is 42.8 ± 2.04%, the inhibition at 100 µM was 38.2 ± 1.74% and the IC50 was greater than 1 mM.
In the case of `C=CCn1c(-c2ccc(Cl)cc2Cl)csc1=NN=C(C)c1ccc(N2CCCCC2)cc1` [D2g, 3-Allyl-4-(2,4-dichlorophenyl)-2-((1-(4-(piperidin-1-yl)phenyl)ethylidene)hydrazineylidene)-2,3-dihydrothiazole], at BChE enzyme, the IC50 was greater than 1 mM, the inhibition at 1000 µM is 29.3 ± 1.35% and the inhibition at 100 µM was 24 ± 1.07%. Moreover, at AChE enzyme, the inhibition at 1000 µM amounted to 39.7 ± 1.88%, the inhibition at 100 µM worked out at 31.6 ± 1.47% and the IC50 was greater than 1 mM.
Regarding `COc1ccc(-c2csc(=NN=C(C)c3ccc(N4CCCCC4)cc3)n2C)cc1` [D1e, 4-(4-Methoxyphenyl)-3-methyl-2-((1-(4-(piperidin-1-yl)phenyl)ethylidene)hydrazineylidene)-2,3-dihydrothiazole], on BChE enzyme, the IC50 was greater than 1 mM, the inhibition at 1000 µM was determined as 27.6 ± 1.08% and the inhibition at 100 µM turned out to be 17.9 ± 0.71%. Also, the inhibitory activity entry on AChE enzyme (at concentrations of 1000 and 100 µM) is given as “more than 50%”. Besides, at AChE enzyme, the inhibition at 1000 µM was 92.6 ± 1.8%, the inhibition at 100 µM came to 84.1 ± 2.15% and the IC50 amounted to 0.000613 ± 2.5e-05 mM.
Take `CC(=NN=c1scc(-c2ccc(Cl)cc2)n1C)c1ccc(N2CCCCC2)cc1` [D1d, 4-(4-Chlorophenyl)-3-methyl-2-((1-(4-(piperidin-1-yl)phenyl)ethylidene)hydrazineylidene)-2,3-dihydrothiazole]: at BChE enzyme, the IC50 was greater than 1 mM, the inhibition at 1000 µM came out at 23 ± 0.725% and the inhibition at 100 µM was 15.2 ± 0.734%. Moreover, at AChE enzyme, the inhibition at 1000 µM was found to be 55.7 ± 2.08%, the inhibition at 100 µM worked out at 29.6 ± 1.23% and the IC50 was greater than 0.1 mM.
With `CC(=NN=c1scc(-c2ccc(Cl)c(Cl)c2)n1C)c1ccc(N2CCCCC2)cc1` [D1h, 4-(3,4-Dichlorophenyl)-3-methyl-2-((1-(4-(piperidin-1-yl)phenyl)ethylidene)hydrazineylidene)-2,3-dihydrothiazole], at BChE enzyme, the IC50 is greater than 1 mM, the inhibition at 1000 µM is 31.5 ± 1.31% and the inhibition at 100 µM was 24.3 ± 0.925%. Also, on AChE enzyme, the inhibition at 1000 µM was 27.6 ± 1.18%, the inhibition at 100 µM was 14.7 ± 0.646% and the IC50 is greater than 1 mM.
As to `C=CCn1c(-c2ccc(F)cc2)csc1=NN=C(C)c1ccc(N2CCCCC2)cc1` [D2b, 3-Allyl-4-(4-fluorophenyl)-2-((1-(4-(piperidin-1yl)phenyl)ethylidene)hydrazineylidene)-2,3-dihydrothiazole], on BChE enzyme, the half-maximal inhibitory concentration (IC50) is greater than 1 mM, the inhibition at 1000 µM came out at 38.2 ± 1.66% and the inhibition at 100 µM worked out at 27.4 ± 1.25%. Further, on AChE enzyme, the inhibition at 1000 µM was 47.2 ± 2.17%, the inhibition at 100 µM came out at 41.7 ± 1.96% and the IC50 was greater than 1 mM.
As to `C=CCn1c(-c2ccc(Cl)cc2)csc1=NN=C(C)c1ccc(N2CCCCC2)cc1` [D2d, 3-Allyl-4-(4-chlorophenyl)-2-((1-(4-(piperidin-1 yl)phenyl)ethylidene)hydrazineylidene)-2,3-dihydrothiazole], on BChE enzyme, the IC50 was greater than 1 mM, the inhibition at 1000 µM is 30.5 ± 1.03% and the inhibition at 100 µM worked out at 20 ± 0.926%. In addition, at AChE enzyme, the inhibition at 1000 µM worked out at 31.2 ± 1.32%, the inhibition at 100 µM amounted to 28 ± 0.884% and the IC50 was greater than 1 mM.
As to `C=CCn1c(-c2ccc(C)cc2C)csc1=N/N=C(\C)c1ccc(N2CCCCC2)cc1` [D2i, 3-Allyl-4-(2,4-dimethylphenyl)-2-(((E)-1-(4-(piperidin-1-yl)phenyl)ethylidene)hydrazineylidene)-2,3-dihydrothiazole], on BChE enzyme, the IC50 was greater than 1 mM, the inhibition at 1000 µM is 42.1 ± 2.02% and the inhibition at 100 µM stood at 28.7 ± 1.12%. At AChE enzyme, the inhibition at 1000 µM came to 28.1 ± 1.25%, the inhibition at 100 µM is 20.5 ± 0.862% and the IC50 was greater than 1 mM.
For `C=CCn1c(-c2ccc(C)cc2)csc1=NN=C(C)c1ccc(N2CCCCC2)cc1` [D2a, 3-Allyl-2-((1-(4-(piperidin-1-yl)phenyl)ethylidene)hydrazineylidene)-4-(p-tolyl)-2,3-dihydrothiazole], at BChE enzyme, the 50% inhibitory concentration (IC50) was greater than 1 mM, the inhibition at 1000 µM was determined as 30.8 ± 1.07% and the inhibition at 100 µM was 20.9 ± 0.802%. Moreover, on AChE enzyme, the inhibition at 1000 µM is 38.6 ± 1.35%, the inhibition at 100 µM worked out at 30.1 ± 1.45% and the IC50 is greater than 1 mM.
As to `C=CCn1c(-c2ccc(C#N)cc2)csc1=NN=C(C)c1ccc(N2CCCCC2)cc1` [D2f, 4-(3-Allyl-2-((1-(4-(piperidin-1-yl)phenyl)ethylidene)hydrazineylidene)-2,3-dihydrothiazol-4-yl)benzonitrile], at BChE enzyme, the IC50 is greater than 1 mM, the inhibition at 1000 µM came out at 21.9 ± 0.855% and the inhibition at 100 µM worked out at 16.5 ± 0.578%. On AChE enzyme, the inhibition at 1000 µM came to 76 ± 2.28%, the inhibition at 100 µM amounted to 29.8 ± 1.26% and the IC50 is greater than 0.1 mM.
For `CCn1c(-c2ccc(Cl)cc2Cl)csc1=NN=C(C)c1ccc(N2CCCCC2)cc1` [D3g, 4-(2,4-Dichlorophenyl)-3-ethyl-2-((1-(4-(piperidin-1 yl)phenyl)ethylidene)hydrazineylidene)-2,3-dihydrothiazole], on BChE enzyme, the IC50 was greater than 1 mM, the inhibition at 1000 µM is 33.5 ± 1.26% and the inhibition at 100 µM stood at 26.8 ± 1.06%. In addition, at AChE enzyme, the inhibition at 1000 µM worked out at 26.7 ± 1.15%, the inhibition at 100 µM came to 20.9 ± 0.884% and the IC50 was greater than 1 mM.
For `CC(=NN=c1scc(-c2ccc(C)cc2C)n1C)c1ccc(N2CCCCC2)cc1` [D1i, 4-(2,4-Dimethylphenyl)-3-methyl-2-((1-(4-(piperidin-1-yl)phenyl)ethylidene)hydrazineylidene)-2,3-dihydrothiazole], at BChE enzyme, the IC50 is greater than 1 mM, the inhibition at 1000 µM turned out to be 40.9 ± 1.86% and the inhibition at 100 µM stood at 29.5 ± 0.846%. At AChE enzyme, the inhibition at 1000 µM was found to be 59.3 ± 1.29%, the inhibition at 100 µM came out at 13.7 ± 0.52% and the IC50 was greater than 0.1 mM.
